Patent publication US11457625B1, “Tuning a broad acting antimicrobial textile to act as a narrow spectrum antimicrobial textile” (priority 2018, dated 2022)
No end group written: not given here.

What was measured:
S. epidermidis 12228 = assay: Testing swatches for binding and antimicrobial activity; type: cell-based, Staphylococcus epidermidis; conditions: for colonies counted (cells recovered from swatch), S. epidermidis: Cj peptide attached to swatches
Experimental: (§1) Peptides were synthesized at New England peptides with the linker sequence of GGSGGS or GGSGG on the N terminal (Table 1). Textile swatches of cotton or cotton-nylon blends were cut to 1 cm circles and the surface hydroxyls were converted to carboxyl by submerging the swatches 1 hour with agitation at 300 rpm in 25 mL of citric acid buffer (7% citric acid, 5% Sodium Hypophosphate monohydrate). (Synthetic material such as nylon and polyester require a pretreatment with sodium hydroxide before the citric acid buffer is added) To cure the reaction, the swatches were heated in a microwave for 2 minutes. After curing, swatches were washed the in 25 mL of deionized water for 5 min. The swatches were activated by submerging in 30 mL of EDC solution (0.6372 g in 30 mL 200 mM monobasic sodium phosphate buffer pH) and incubating for 45 minutes with 300 rpm agitation. After incubation, swatches were rinsed in 25 mL 20 mM sodium phosphate buffer pH 7.2 for 5 minutes. During the wash, 5 ml peptide samples were prepare from a 2 mg/ml stock of peptide in 20 mM sodium phosphate solution at concentrations of […] 1.25 mg/g peptide. […] Each solution was added to one well of a six well microtiter plate. […] Swatches were washed in 20 mM phosphate buffer for 5 min, then wash for 5 min in water twice and allowed to air dry.
(§2) Inoculation took place using an 8 ml overnight cultures for each target microorganisms in appropriate media. For Staphylococcus aureus, Staphylococcus epidermidis and Pseudomonas aeruginosa cultures were grown on Nutrient broth. For Corynebacterium jeikieson the media was Brain Heart Infusion supplemented with 0.1% Tween 80 and for Micrococcus luteus the media was Brain Heart Infusion media. The OD for each culture was taken and diluted to an OD of 1 using appropriate growth media. For each culture a 1 mL aliquot was taken and transfer to a clean 2 mL eppendorf tube. The tubes were placed into a micro centrifuge and spun at 10,000 G until a pellet has formed. The media was aspirated without disturbing the pellet and the pellet was re-suspend in 1 mL of 0.125× Nutrient Broth with 0.15% Triton X-100. This was repeated to wash pellets. The pellet was re-suspend in 1 ml of 0.125× Nutrient Broth with 0.15% Triton X-100 and the above centrifugation was performed again. After last wash, the pellet was re-suspended in 1 ml of 0.125× Nutrient Broth with 0.15% Triton X-100 then added to 8 mL of 0.125× Nutrient Broth with 0.15% Triton X-100. […] The inoculum was enumerated by adding 500 ul into 4.5 ml of PBS and serial diluting 7 more times. Counts were taken by spread plating only 10^−6, 10^−7 and 10^−8.
(§3) Swatches prepared previously were inoculated with 25 ul of the inoculum (scoured samples will be used as a negative control). The inoculated swatches were incubated for 24 hr at 37° C. in a sealed tube. To analyze binding, the swatches were placed into 2.5 ml modified DE broth and vortex for 5 min. The modified DE broth was serial diluted 10^−3 by adding 500 ul to 4.5 ml phosphate buffer. The dilution was spread plated onto the appropriate growth media (mannitol salts for Staphylococcus aureus, nutrient agar for Staphylococcus epidermidis, Cetrimide agar for Pseudomonas aeruginosa, Brain heart infusion for Micrococcus luteus and Brain Heart infusion with 0.1% Tween 80 for Corynebacterium jeikeium) and incubate overnight.
(§4) An experiment was run using the same two Staphylococcus aureus strains 27217 and 25923 with the addition of Staphylococcus epidermidis. […]
(§5) The six potential peptides were attached to swatches and exposed to Corynebacterium jeikeium, Micrococcus luteus, Staphylococcus epidermidis, Staphylococcus aureus and Pseudomonas aeruginosa.

Pseudomonas aeruginosa = assay: as above; type: cell-based; conditions: for colonies counted (cells recovered from swatch), P. aeruginosa: Cj peptide attached to swatches
Experimental: as §1, §2, §3
Pseudomonas aeruginosa was examined using concentrations based upon the textile MIC.
as §5

Micrococcus luteus = assay: as above; type: cell-based; conditions: peptide attached to swatches
Experimental: as §1, §2, §3, §5

Corynebacterium jeikeium = assay: as above; type: cell-based; conditions: peptide attached to swatches
Experimental: as §1, §2, §3, §5

Staphylococcus aureus = assay: Testing swatches for binding and antimicrobial activity (strain not distinguished); type: cell-based; conditions: for colonies counted (cells recovered from swatch), S. aureus: Cj peptide attached to swatches
Experimental: as §1, §2, §3
These concentration were chosen based upon result from previously described experiments. The treated fabric was evaluated against two different strains of Staphylococcus aureus (Table 5). […] A follow up experiment provide additional evidence for this possibility.
as §4

S. aureus 25923 = assay: Testing swatches for binding and antimicrobial activity; type: cell-based, Staphylococcus aureus; conditions: PHMB 0%, 24 hr 37° C.
Experimental: as §1
as §2, with “Counts were taken by spread plating only 10^−6, 10^−7 and 10^−8.” left out
(§6) These concentration were chosen based upon result from previously described experiments. The treated fabric was evaluated against two different strains of Staphylococcus aureus (Table 5). […]

S aureus 27217 = assay: as above; type: cell-based, Staphylococcus aureus; conditions: PHMB 0%, 24 hr 37° C.
Experimental: as §1
as §2, with “Counts were taken by spread plating only 10^−6, 10^−7 and 10^−8.” left out
as §6

Row | Sequence | colonies counted (cells recovered from swatch), S. epidermidis (S. epidermidis 12228) | colonies counted (cells recovered from swatch), P. aeruginosa (Pseudomonas aeruginosa) | colonies counted (cells recovered from swatch), M luteus (Micrococcus luteus) | colonies counted (cells recovered from swatch), C. Jeikeium (Corynebacterium jeikeium) | colonies counted (cells recovered from swatch), S. aureus (Staphylococcus aureus) | other results
1 | GGSGGGWWNSWGKCV (MICROCOCCUS LUTEUS and CORYNEBACTERIUM JEIKIEUM) [Cj 5] | 337000 | TNTC | 0 | 0 | 4195000 | –
2 | GGSGGIGGVSGGLTG (MICROCOCCUS LUTEUS and CORYNEBACTERIUM JEIKIEUM) [Cj 6] | 122000 | 175000 | 0 | 0 | 5980000 | –
3 | GGSGGNGVVLTL (MICROCOCCUS LUTEUS and CORYNEBACTERIUM JEIKIEUM) [Cj 1] | 65500 | 40000 | 0 | 175 | 6055000 | –
4 | GGSGGNRWWQGVVP (MICROCOCCUS LUTEUS and CORYNEBACTERIUM JEIKIEUM) [Cj3] | 121500 | 27000 | 0 | 300 | 7040000 | –
5 | GGSGGSKKHRKHRKHRKH (also: bound to textile) [pep] | – | – | – | – | – | CFU (Pseudomonas aeruginosa; 2.5 mg/ml pep, 0% PHMB): 0 CFU
6 | GGSGGSWQHVFT (MICROCOCCUS LUTEUS and CORYNEBACTERIUM JEIKIEUM) [Cj 4] | 145000 | 28000 | 0 | 245 | 5315000 | –
7 | GGSGGSYSTCDFIM (STAPHYLOCOCCUS AUREUS) [Peptide] | – | – | – | – | – | colonies counted (cells recovered from swatch) (S. aureus 25923; peptide 1.75 mg/g): 4765000; colonies counted (cells recovered from swatch) (S. aureus 25923; peptide 2.5 mg/ml): 0; colonies counted (cells recovered from swatch) (S aureus 27217; peptide 1.75 mg/g): 475000; colonies counted (cells recovered from swatch) (S aureus 27217; peptide 2.5 mg/ml): 0; binding by the peptide (in words) (S. epidermidis 12228; S. aureus-binding peptide 2.5 mg/ml): does not appear to be any binding; colonies counted (cells recovered from swatch) (S. epidermidis 12228; S. aureus-binding peptide 2.5 mg/ml, PHMB 0%): 693000; lowest peptide concentration that will bind the cells (Staphylococcus aureus; both strains): 2.5 mg/mL; binding of cells (in words) (Staphylococcus aureus; both strains, peptide 2.5 mg/ml regardless of the PHMB concentration): completely bound all of the cells; binding of cells (in words) (Staphylococcus aureus; lower peptide concentrations (below 2.5 mg/ml)): may have bound some of the cells, but not all of them; cells recovered (in words) (Staphylococcus aureus; strains 27217 and 25923, peptide present (2.5 mg/ml), PHMB 0 or 0.0008%): no Staphylococcus aureus cell were recovered
8 | GGSGGTWTKKLK (MICROCOCCUS LUTEUS and CORYNEBACTERIUM JEIKIEUM) [Cj2] | 294000 | TNTC | 0 | 0 | 7680000 | –
